Among the data in patent US7777035B2, “Azaindazole compounds and methods of use” (Chemocentryx, Inc., priority 2005, dated 2010) are IC50 values, retold here.

The assay has as its target T1, CCR1 (Homo sapiens, UniProt P32246).
T1 construct: host or cells: THP-1 cells or monocytes isolated from human buffy coats
T1 sequence (P32246 1-355): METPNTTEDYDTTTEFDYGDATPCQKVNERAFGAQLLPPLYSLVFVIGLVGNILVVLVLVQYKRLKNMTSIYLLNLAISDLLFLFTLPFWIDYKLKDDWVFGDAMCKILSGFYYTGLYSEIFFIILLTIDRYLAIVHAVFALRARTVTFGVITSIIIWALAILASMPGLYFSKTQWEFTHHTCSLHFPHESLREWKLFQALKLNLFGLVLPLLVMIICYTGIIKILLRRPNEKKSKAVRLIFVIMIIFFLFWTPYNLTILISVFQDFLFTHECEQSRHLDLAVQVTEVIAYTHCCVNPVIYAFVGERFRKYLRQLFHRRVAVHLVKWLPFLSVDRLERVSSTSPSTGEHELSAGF
Kind of assay: CCR1 chemotaxis assay or binding assay (activity given for either). The note with it: either the chemotaxis assay or binding assay; CCR1 expressing cells (THP-1 or human monocytes); read-out: Activity (IC50 class). How it is done: Cells were grown under 5% CO2/95% air, 100% humidity at 37° C. and subcultured twice weekly at 1:5 (cells were cultured at a density range of 2×10^5 to 2×10^6 cells/mL) and harvested at 1×10^6 cells/mL. THP-1 cells express CCR1 and can be used in CCR1 binding and functional assays.
Monocytes were isolated from human buffy coats using the Miltenyi bead isolation system (Miltenyi, Auburn, Calif.). Briefly, following a Ficoll gradient separation to isolate peripheral blood mononuclear cells, cells were washed with PBS and the red blood cells lysed using standard procedures. Remaining cells were labeled with anti-CD14 antibodies coupled to magnetic beads (Miltenyi Biotech, Auburn, Calif.). Labeled cells were passed through AutoMACS (Miltenyi, Auburn, Calif.) and positive fraction collected. Monocytes express CCR1 and can be used in CCR1 binding and functional assays.
CCR1 expressing cells were centrifuged and resuspended in assay buffer (20 Mm HEPES pH 7.1, 140 Mm NaCl, 1 Mm CaCl2, 5 Mm MgCl2, and with 0.2% bovine serum albumin) to a concentration of 5×10^6 cells/mL for THP-1 cells and 5×10^5 for monocytes. Binding assays were set up as follows. […] Reactions were aspirated onto GF/B glass filters pre-soaked in 0.3% polyethyleneimine (PEI) solution, on a vacuum cell harvester (Packard Instruments; Meriden, Conn.). Scintillation fluid (40 μl; Microscint 20, Packard Instruments) was added to each well, the plates were sealed and radioactivity measured in a Topcount scintillation counter (Packard Instruments). Control wells containing either diluent only (for total counts) or excess MIP-1α or MIP-1β (1 μg/mL, for non-specific binding) were used to calculate the percent of total inhibition for compound. The computer program Prism from GraphPad, Inc. (San Diego, Calif.) was used to calculate IC50 values.
Chemotaxis assays were performed using 5 ┌ m pore polycarbonate, polyvinylpyrrolidone-coated filters in 96-well chemotaxis chambers (Neuroprobe; Gaithersburg, Md.) using chemotaxis buffer (Hank's balanced salt solution (HBSS) and 1% FBS). CCR1 chemokine ligands (i.e., MIP-1α, CCL15/Leukotactin; R&D Systems; Minneapolis, Minn.) are use to evaluate compound mediated inhibition of CCR1 Mediated migration. Other chemokines (i.e., SDF-1α; R&D Systems; Minneapolis, Minn.) are used as specificity controls. […] The chambers were incubated 1-2 hours at 37° C., and the number of cells in the lower chamber quantified either by direct cell counts in five high powered fields per well or by the CyQuant assay (Molecular Probes), a fluorescent dye method that measures nucleic acid content and microscopic observation.
THP-1 cells and monocytes lack other chemokine receptors that bind the same set of chemokine ligands as CCR1 (i.e., MIP-1α, MPIF-1, Leukotactin, etc.). Equal numbers of cells were added to each well in the plate. The cells were then incubated with radiolabeled MIP-1α. Unbound ligand was removed by washing the cells, and bound ligand was determined by quantifying radioactive counts. […] Percent inhibition was determined by the equation: […]
In the assay, the amount of compound was varied; while cell number and ligand concentration were held constant.
One of the primary functions of chemokines is their ability to mediate the migration of chemokine receptor-expressing cells, such as white blood cells. […] THP-1 Myelomonocytic leukemia cells, which resemble monocytes, as wells as freshly isolated monocytes, were used as targets for chemoattraction by CCR1 chemokine ligands (i.e., MIP-1α, CCL15/leukotactin). […] In this assay, the amount of compound was varied; while cell number and chemokine agonist concentrations were held constant. After the chemotaxis chambers were incubated 1-2 hours at 37° C., the responding cells in the lower chamber were quantified by labeling with the CyQuant assay (Molecular Probes), a fluorescent dye method that measures nucleic acid content, and by measuring with a Spectrafluor Plus (Tecan).
In the case of `COc1cc(N2CCN(C(=O)Cn3ncc4cccnc43)[C@@H](C)C2)c(F)cc1Cl` [Compound 1.001], the IC50 is less than 1000 nM. On to `COc1cc(N2CCN(C(=O)Cn3cc4cccnc4n3)[C@@H](C)C2)c(F)cc1Cl` [Compound 1.002], for which the IC50 is less than 1000 nM. To `COc1cc(N2CCN(C(=O)Cn3nc(N)c4cccnc43)[C@@H](C)C2)c(F)cc1Cl` [Compound 1.003] belongs less than 1000 nM; to `COc1cc(N2CCN(C(=O)Cn3nc(Cl)c4cccnc43)CC2)ccc1Cl` [Compound 1.004], less than 1000 nM. On to `COc1cc(N2CCN(C(=O)Cn3nc(C)c4cccnc43)[C@@H](C)C2)c(F)cc1Cl` [Compound 1.005], for which the IC50 was less than 1000 nM.

`COc1cc(N2CCN(C(=O)Cn3cc4cccnc4n3)CC2)ccc1Cl` [Compound 1.006]: the IC50 was less than 1000 nM. To `COc1cc(N2CCN(C(=O)Cn3ncc4cccnc43)CC2)ccc1Cl` [Compound 1.007] belongs less than 1000 nM; to `COc1cc(N2CCN(C(=O)Cn3ncc4cnccc43)[C@@H](C)C2)c(F)cc1Cl` [Compound 1.008], less than 1000 nM; to `COc1cc(N2CCN(C(=O)Cn3cc4ccncc4n3)[C@@H](C)C2)c(F)cc1Cl` [Compound 1.009], less than 1000 nM. As for `COc1cc(N2CCN(C(=O)Cn3nc(-c4ccccn4)c4cccnc43)CC2)ccc1Cl` [Compound 1.010], the figure is less than 1000 nM; as for `COc1cc(N2CCN(C(=O)Cn3nc(-c4nccs4)c4cccnc43)CC2)ccc1Cl` [Compound 1.011], 2500 to 12500 nM. To `COc1cc(N2CCN(C(=O)Cn3ncc4cccnc43)CC2)c(F)cc1Cl` [Compound 1.012] belongs less than 1000 nM. Take `COc1cc(N2CCN(C(=O)Cn3cc4cccnc4n3)CC2)c(F)cc1Cl` [Compound 1.013]: the IC50 was less than 1000 nM. Regarding `COc1cc(N2CCN(C(=O)Cn3nc(C)c4cccnc43)CC2)ccc1Cl` [Compound 1.014], the IC50 lay within 1000 to 2500 nM. As for `COc1cc(N2CCN(C(=O)Cn3nc(-c4ncco4)c4cccnc43)CC2)ccc1Cl` [Compound 1.015], the figure is less than 1000 nM. For the molecule `COc1cc(N2CCN(C(=O)Cn3nc(F)c4cccnc43)CC2)ccc1Cl` [Compound 1.016], the IC50 is less than 1000 nM.

For the molecule `COc1cc(N2CCN(C(=O)Cn3nc(-c4ncco4)c4cccnc43)[C@@H](C)C2)c(F)cc1Cl` [Compound 1.017], the IC50 was less than 1000 nM. As to `COc1cc(N2CCN(C(=O)Cn3cc4ccncc4n3)CC2)ccc1Cl` [Compound 1.018], the IC50 is less than 1000 nM. As for `COc1cc(N2CCN(C(=O)Cn3ncc4ccncc43)CC2)ccc1Cl` [Compound 1.019], the figure is less than 1000 nM; as for `COc1cc(N2CCN(C(=O)Cn3nc(-c4nccs4)c4cccnc43)[C@@H](C)C2)c(F)cc1Cl` [Compound 1.021], less than 1000 nM.

As to `COc1cc(N2CCN(C(=O)Cn3nc(-c4ccccn4)c4cccnc43)[C@@H](C)C2)c(F)cc1Cl` [Compound 1.022], the IC50 was less than 1000 nM. To `COc1cc(N2CCN(C(=O)Cn3nc(C)c4cccnc43)CC2)ccc1Cl` [Compound 1.023] belongs less than 1000 nM; to `COc1cc(N2CCN(C(=O)Cn3nc(-c4nccs4)c4cccnc43)CC2)ccc1Cl` [Compound 1.025], less than 1000 nM. As to `COc1cc(N2CCN(C(=O)Cn3nc(C#N)c4cccnc43)CC2)ccc1Cl` [Compound 1.026], the IC50 was less than 1000 nM. As for `COc1cc(N2CCN(C(=O)Cn3cc4ncccc4n3)CC2)ccc1Cl` [Compound 1.027], the figure is less than 1000 nM.

For `COc1cc(N2CCN(C(=O)Cn3ncc4ncccc43)CC2)ccc1Cl` [Compound 1.028], the IC50 was less than 1000 nM. As for `COc1cc(N2CCN(C(=O)Cn3nc4ncccc4c3Cl)CC2)ccc1Cl` [Compound 1.029], the figure is less than 1000 nM; as for `COc1cc(N2CCN(C(=O)Cn3ncc4ccc[n+]([O-])c43)CC2)ccc1Cl` [Compound 1.030], less than 1000 nM; as for `COc1cc(N2CCN(C(=O)Cn3ncc4ccc(C)nc43)CC2)ccc1Cl` [Compound 1.031], less than 1000 nM. With `COc1cc(N2CCN(C(=O)Cn3cc4ccc(C)nc4n3)CC2)ccc1Cl` [Compound 1.032], the IC50 was less than 1000 nM. `COc1cc(N2CCN(C(=O)Cn3nc(N4CCOCC4)c4cccnc43)CC2)ccc1Cl` [Compound 1.033]: the IC50 is less than 1000 nM. `COc1cc(N2CCN(C(=O)Cn3ncc4ccncc43)[C@@H](C)C2)c(F)cc1Cl` [Compound 1.034]: the half-maximal inhibitory concentration (IC50) is less than 1000 nM. In the case of `COc1cc(N2CCN(C(=O)Cn3ncc4cc[n+]([O-])cc43)CC2)ccc1Cl` [Compound 1.035], the IC50 is less than 1000 nM. As for `COc1cc(N2CCN(C(=O)Cn3cc4c(Cl)nccc4n3)CC2)ccc1Cl` [Compound 1.036], the figure is less than 1000 nM; as for `COc1cc(N2CCN(C(=O)Cn3cc4c(I)ccnc4n3)CC2)ccc1Cl` [Compound 1.037], less than 1000 nM. To `COc1cc(N2CCN(C(=O)Cn3ncc4c(I)ccnc43)CC2)ccc1Cl` [Compound 1.038] belongs less than 1000 nM; to `COc1cc(N2CCN(C(=O)Cn3ncc4c(S(C)(=O)=O)ccnc43)CC2)ccc1Cl` [Compound 1.039], less than 1000 nM.

Regarding `COc1cc(N2CCN(C(=O)Cn3nc(CN=[N+]=[N-])c4cccnc43)CC2)ccc1Cl` [Compound 1.040], the IC50 was less than 1000 nM. As for `COc1cc(N2CCN(C(=O)Cn3nc(CS(=O)(=O)O)c4cccnc43)CC2)ccc1Cl` [Compound 1.041], the figure is 1000 to 2500 nM. Regarding `COc1cc(N2CCN(C(=O)Cn3ncc4cc(Cl)cnc43)CC2)ccc1Cl` [Compound 1.042], the IC50 was less than 1000 nM. As for `COc1cc(N2CCN(C(=O)Cn3ncc4c(Cl)ncnc43)CC2)ccc1Cl` [Compound 1.044], the figure is less than 1000 nM; as for `COc1cc(N2CCN(C(=O)Cn3ncc4c(OC)ncnc43)CC2)ccc1Cl` [Compound 1.045], less than 1000 nM. As for `COc1cc(N2CCN(C(=O)Cn3cc4ccc(Cl)nc4n3)CC2)ccc1Cl` [Compound 1.046], the figure is less than 1000 nM; as for `COc1cc(N2CCN(C(=O)Cn3ncc4ccc(Cl)nc43)CC2)ccc1Cl` [Compound 1.047], less than 1000 nM. To `COc1cc(N2CCN(C(=O)Cn3ncc4ccc(N=[N+]=[N-])nc43)CC2)ccc1Cl` [Compound 1.048] belongs less than 1000 nM; to `COc1cc(N2CCN(C(=O)Cn3ncc4ccc(N)nc43)CC2)ccc1Cl` [Compound 1.049], less than 1000 nM; to `COc1cc(N2CCN(C(=O)Cn3ncc4ccnc(N=[N+]=[N-])c43)CC2)ccc1Cl` [Compound 1.050], less than 1000 nM. For the molecule `COc1cc(N2CCN(C(=O)Cn3ncc4ccnc(N)c43)CC2)ccc1Cl` [Compound 1.051], the IC50 was less than 1000 nM.

In the case of `COc1cc(N2CCN(C(=O)Cn3nc4ncccc4c3-c3ncco3)CC2)ccc1Cl` [Compound 1.052], the IC50 was less than 1000 nM. As for `COc1cc(N2CCN(C(=O)Cn3nc(C)c4cc(N)cnc43)CC2)ccc1Cl` [Compound 1.053], the IC50 is less than 1000 nM. To `COc1cc(N2CCN(C(=O)Cn3nc(C)c4cc([N+](=O)[O-])cnc43)CC2)ccc1Cl` [Compound 1.054] belongs less than 1000 nM.

What is called IC50 is the concentration needed to halve the response being measured.
